#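 Interpolation was linear, between the two tested concentrations surrounding the appropriate level; five concentrations were tested over 48 hours in 96-well plates. GI50 marks 50% less growth. TGI is the concentration that stops growth completely.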
# Columns and labels:
# Assay in all cases: DTP human tumour cell line panel, 48 h
# OVCAR-4 ovarian = tested on: OVCAR-4 ovarian
# U251 CNS = tested on: U251 CNS
# HT29 colon = tested on: HT29 colon
# CAKI-1 renal = tested on: CAKI-1 renal
# SK-OV-3 ovarian = tested on: SK-OV-3 ovarian
# KM12 colon = tested on: KM12 colon
# 786-0 renal = tested on: 786-0 renal
# NCI-H23 lung = tested on: NCI-H23 lung
# MCF7 breast = tested on: MCF7 breast
# OVCAR-5 ovarian = tested on: OVCAR-5 ovarian
# EKVX NSCLC = tested on: EKVX NSCLC
# M14 melanoma = tested on: M14 melanoma
# OVCAR-8 ovarian = tested on: OVCAR-8 ovarian
# HL-60(TB) leukemia = tested on: HL-60(TB) leukemia
# LOX IMVI melanoma = tested on: LOX IMVI melanoma
# NCI/ADR-RES ovarian = tested on: NCI/ADR-RES ovarian
# TK-10 renal = tested on: TK-10 renal
# OVCAR-3 ovarian = tested on: OVCAR-3 ovarian
# UACC-257 melanoma = tested on: UACC-257 melanoma
# COLO 205 colon = tested on: COLO 205 colon
# CCRF-CEM leukemia = tested on: CCRF-CEM leukemia
# NCI-H460 lung = tested on: NCI-H460 lung
# SF-295 CNS = tested on: SF-295 CNS
# HS 578T breast = tested on: HS 578T breast
# HOP-92 NSCLC = tested on: HOP-92 NSCLC
# HCT-15 colon = tested on: HCT-15 colon
# SW-620 colon = tested on: SW-620 colon
# HCC-2998 colon = tested on: HCC-2998 colon
# ACHN renal = tested on: ACHN renal
# A498 renal = tested on: A498 renal
# UO-31 renal = tested on: UO-31 renal
# DU-145 prostate = tested on: DU-145 prostate
# SK-MEL-28 melanoma = tested on: SK-MEL-28 melanoma
# NCI-H522 lung = tested on: NCI-H522 lung
# SNB-19 CNS = tested on: SNB-19 CNS
# BT-549 breast = tested on: BT-549 breast
# SR leukemia = tested on: SR leukemia
# MDA-MB-231 breast = tested on: MDA-MB-231 breast
# UACC-62 melanoma = tested on: UACC-62 melanoma
# SF-268 CNS = tested on: SF-268 CNS
# MDA-MB-435 = tested on: MDA-MB-435
# HCT-116 colon = tested on: HCT-116 colon
# SF-539 CNS = tested on: SF-539 CNS
# K-562 leukemia = tested on: K-562 leukemia
# SN12C renal = tested on: SN12C renal
# A549 NSCLC = tested on: A549 NSCLC
# MALME-3M melanoma = tested on: MALME-3M melanoma
# RPMI-8226 leukemia = tested on: RPMI-8226 leukemia
# SNB-75 CNS = tested on: SNB-75 CNS
# PC-3 prostate = tested on: PC-3 prostate
# T-47D breast = tested on: T-47D breast
# SK-MEL-2 melanoma = tested on: SK-MEL-2 melanoma
# MOLT-4 leukemia = tested on: MOLT-4 leukemia
# HOP-62 NSCLC = tested on: HOP-62 NSCLC
smiles,measurement,setting,value
CC(=O)Nc1c(Br)cc2c(c1Br)Cc1cc(Br)ccc1-2,GI50,OVCAR-4 ovarian,2470 nM
same,TGI,OVCAR-4 ovarian,6.6 µM
same,GI50,U251 CNS,3.32 µM
same,TGI,U251 CNS,12.4 µM
same,GI50,HT29 colon,24.3 µM
same,TGI,HT29 colon,> 100 µM
same,GI50,CAKI-1 renal,1980 nM
same,TGI,CAKI-1 renal,10.7 µM
same,GI50,SK-OV-3 ovarian,4.22 µM
same,TGI,SK-OV-3 ovarian,17.2 µM
same,GI50,KM12 colon,11.6 µM
same,TGI,KM12 colon,55.1 µM
same,GI50,786-0 renal,1830 nM
same,TGI,786-0 renal,3.43 µM
same,GI50,NCI-H23 lung,3.64 µM
same,TGI,NCI-H23 lung,16 µM
same,GI50,MCF7 breast,9.29 µM
same,TGI,MCF7 breast,96.1 µM
same,GI50,OVCAR-5 ovarian,12 µM
same,TGI,OVCAR-5 ovarian,27 µM
same,GI50,EKVX NSCLC,392 nM
same,TGI,EKVX NSCLC,13.8 µM
same,GI50,M14 melanoma,3.7 µM
same,TGI,M14 melanoma,18.3 µM
same,GI50,OVCAR-8 ovarian,4.62 µM
same,TGI,OVCAR-8 ovarian,18.8 µM
same,GI50,HL-60(TB) leukemia,50.5 µM
same,TGI,HL-60(TB) leukemia,> 100 µM
same,GI50,LOX IMVI melanoma,2280 nM
same,TGI,LOX IMVI melanoma,6.6 µM
same,GI50,NCI/ADR-RES ovarian,3.38 µM
same,TGI,NCI/ADR-RES ovarian,13.6 µM
same,GI50,TK-10 renal,12.4 µM
same,TGI,TK-10 renal,26.1 µM
same,GI50,OVCAR-3 ovarian,8.42 µM
same,TGI,OVCAR-3 ovarian,21.1 µM
same,GI50,UACC-257 melanoma,19.3 µM
same,TGI,UACC-257 melanoma,> 100 µM
same,GI50,COLO 205 colon,2440 nM
same,TGI,COLO 205 colon,13.1 µM
same,GI50,CCRF-CEM leukemia,24.1 µM
same,TGI,CCRF-CEM leukemia,> 100 µM
same,GI50,NCI-H460 lung,2940 nM
same,TGI,NCI-H460 lung,11.4 µM
same,GI50,SF-295 CNS,1610 nM
same,TGI,SF-295 CNS,3.76 µM
same,GI50,HS 578T breast,1960 nM
same,TGI,HS 578T breast,5.73 µM
same,GI50,HOP-92 NSCLC,675 nM
same,TGI,HOP-92 NSCLC,22.5 µM
same,GI50,HCT-15 colon,12.3 µM
same,TGI,HCT-15 colon,> 100 µM
same,GI50,SW-620 colon,3.97 µM
same,TGI,SW-620 colon,15.6 µM
same,GI50,HCC-2998 colon,3.01 µM
same,TGI,HCC-2998 colon,11.8 µM
same,GI50,ACHN renal,3.17 µM
same,TGI,ACHN renal,14.1 µM
same,GI50,A498 renal,3.87 µM
same,TGI,A498 renal,14.9 µM
same,GI50,UO-31 renal,581 nM
same,TGI,UO-31 renal,13.7 µM
same,GI50,DU-145 prostate,6.44 µM
same,TGI,DU-145 prostate,21.4 µM
same,GI50,SK-MEL-28 melanoma,5.54 µM
same,TGI,SK-MEL-28 melanoma,24.4 µM
same,GI50,NCI-H522 lung,27 µM
same,TGI,NCI-H522 lung,> 100 µM
same,GI50,SNB-19 CNS,12.8 µM
same,TGI,SNB-19 CNS,43 µM
same,GI50,BT-549 breast,2830 nM
same,TGI,BT-549 breast,13.4 µM
same,GI50,SR leukemia,6.87 µM
same,TGI,SR leukemia,31.1 µM
same,GI50,MDA-MB-231 breast,5.11 µM
same,TGI,MDA-MB-231 breast,20.3 µM
same,GI50,UACC-62 melanoma,11.1 µM
same,TGI,UACC-62 melanoma,> 100 µM
same,GI50,SF-268 CNS,9.04 µM
same,TGI,SF-268 CNS,41 µM
same,GI50,MDA-MB-435,4.15 µM
same,TGI,MDA-MB-435,21.1 µM
same,GI50,HCT-116 colon,2760 nM
same,TGI,HCT-116 colon,10.9 µM
same,GI50,SF-539 CNS,13.6 µM
same,TGI,SF-539 CNS,33.2 µM
same,GI50,K-562 leukemia,59.9 µM
same,TGI,K-562 leukemia,> 100 µM
same,GI50,SN12C renal,4.67 µM
same,TGI,SN12C renal,18.9 µM
same,GI50,A549 NSCLC,3.94 µM
same,TGI,A549 NSCLC,14.8 µM
same,GI50,MALME-3M melanoma,7.26 µM
same,TGI,MALME-3M melanoma,53.4 µM
same,GI50,RPMI-8226 leukemia,50.5 µM
same,TGI,RPMI-8226 leukemia,> 100 µM
same,GI50,SNB-75 CNS,1240 nM
same,TGI,SNB-75 CNS,3.31 µM
same,GI50,PC-3 prostate,10.3 µM
same,TGI,PC-3 prostate,26.2 µM
same,GI50,T-47D breast,3.34 µM
same,TGI,T-47D breast,> 100 µM
same,GI50,SK-MEL-2 melanoma,12.6 µM
same,TGI,SK-MEL-2 melanoma,32.7 µM
same,GI50,MOLT-4 leukemia,> 100 µM
same,TGI,MOLT-4 leukemia,> 100 µM
same,GI50,HOP-62 NSCLC,2510 nM
same,TGI,HOP-62 NSCLC,13.9 µM

# Source: PubChem BioAssay (NCI)
